According to PubChem BioAssay (NCI):
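Results reflect a 48-hour exposure of cells in 96-well plates to compound at five concentrations. The concentration for 50% growth inhibition is given as GI50. Definition used: TGI = concentration required for complete inhibition of growth.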

How the values were obtained:
Assay in all cases: DTP human tumour cell line panel, 48 h
HL-60(TB) leukemia = test system: HL-60(TB) leukemia
MCF7 breast = test system: MCF7 breast
CCRF-CEM leukemia = test system: CCRF-CEM leukemia
NCI-H23 lung = test system: NCI-H23 lung
LOX IMVI melanoma = test system: LOX IMVI melanoma
SK-MEL-28 melanoma = test system: SK-MEL-28 melanoma
HCC-2998 colon = test system: HCC-2998 colon
U251 CNS = test system: U251 CNS
UACC-257 melanoma = test system: UACC-257 melanoma
SK-MEL-5 melanoma = test system: SK-MEL-5 melanoma
HOP-92 NSCLC = test system: HOP-92 NSCLC
M14 melanoma = test system: M14 melanoma
SNB-19 CNS = test system: SNB-19 CNS
HCT-116 colon = test system: HCT-116 colon
SW-620 colon = test system: SW-620 colon
A549 NSCLC = test system: A549 NSCLC
MOLT-4 leukemia = test system: MOLT-4 leukemia
UACC-62 melanoma = test system: UACC-62 melanoma
HOP-62 NSCLC = test system: HOP-62 NSCLC
KM12 colon = test system: KM12 colon
ACHN renal = test system: ACHN renal
MDA-MB-231 breast = test system: MDA-MB-231 breast
SK-MEL-2 melanoma = test system: SK-MEL-2 melanoma
BT-549 breast = test system: BT-549 breast
HT29 colon = test system: HT29 colon
OVCAR-4 ovarian = test system: OVCAR-4 ovarian
EKVX NSCLC = test system: EKVX NSCLC
MDA-MB-468 breast = test system: MDA-MB-468 breast
RPMI-8226 leukemia = test system: RPMI-8226 leukemia
HCT-15 colon = test system: HCT-15 colon
NCI-H226 lung = test system: NCI-H226 lung
NCI/ADR-RES ovarian = test system: NCI/ADR-RES ovarian
IGROV1 ovarian = test system: IGROV1 ovarian
CAKI-1 renal = test system: CAKI-1 renal
SF-539 CNS = test system: SF-539 CNS
MDA-MB-435 = test system: MDA-MB-435
K-562 leukemia = test system: K-562 leukemia
OVCAR-3 ovarian = test system: OVCAR-3 ovarian
T-47D breast = test system: T-47D breast
SNB-75 CNS = test system: SNB-75 CNS
OVCAR-5 ovarian = test system: OVCAR-5 ovarian
RXF 393 renal = test system: RXF 393 renal
PC-3 prostate = test system: PC-3 prostate
786-0 renal = test system: 786-0 renal
SF-268 CNS = test system: SF-268 CNS
HS 578T breast = test system: HS 578T breast
TK-10 renal = test system: TK-10 renal
SN12C renal = test system: SN12C renal
DU-145 prostate = test system: DU-145 prostate
MALME-3M melanoma = test system: MALME-3M melanoma
SF-295 CNS = test system: SF-295 CNS
NCI-H522 lung = test system: NCI-H522 lung
A498 renal = test system: A498 renal
OVCAR-8 ovarian = test system: OVCAR-8 ovarian

SMILES: Cc1ccc2c(c1)nc(-c1ccccc1)n2CC(=O)N=Nc1c(O)[nH]c2ccc(Br)cc12
- GI50 (HL-60(TB) leukemia): 3.16 µM
- TGI (HL-60(TB) leukemia): > 100 µM
- GI50 (MCF7 breast): 1.54 µM
- TGI (MCF7 breast): 3.16 µM
- GI50 (CCRF-CEM leukemia): 2.09 µM
- TGI (CCRF-CEM leukemia): 4.96 µM
- GI50 (NCI-H23 lung): 1.77 µM
- TGI (NCI-H23 lung): 3.36 µM
- GI50 (LOX IMVI melanoma): 1.55 µM
- TGI (LOX IMVI melanoma): 2.91 µM
- GI50 (SK-MEL-28 melanoma): 1.65 µM
- TGI (SK-MEL-28 melanoma): 3.06 µM
- GI50 (HCC-2998 colon): 1.85 µM
- TGI (HCC-2998 colon): 3.44 µM
- GI50 (U251 CNS): 1.76 µM
- TGI (U251 CNS): 3.43 µM
- GI50 (UACC-257 melanoma): 1.73 µM
- TGI (UACC-257 melanoma): 3.81 µM
- GI50 (SK-MEL-5 melanoma): 1.74 µM
- TGI (SK-MEL-5 melanoma): 3.58 µM
- GI50 (HOP-92 NSCLC): 1.22 µM
- TGI (HOP-92 NSCLC): 2.64 µM
- GI50 (M14 melanoma): 1.69 µM
- TGI (M14 melanoma): 3.35 µM
- GI50 (SNB-19 CNS): 1.95 µM
- TGI (SNB-19 CNS): 4.28 µM
- GI50 (HCT-116 colon): 1.74 µM
- TGI (HCT-116 colon): 3.34 µM
- GI50 (SW-620 colon): 2.2 µM
- TGI (SW-620 colon): 5.47 µM
- GI50 (A549 NSCLC): 1.9 µM
- TGI (A549 NSCLC): 4.03 µM
- GI50 (MOLT-4 leukemia): 2.22 µM
- TGI (MOLT-4 leukemia): 5.62 µM
- GI50 (UACC-62 melanoma): 1.44 µM
- TGI (UACC-62 melanoma): 2.8 µM
- GI50 (HOP-62 NSCLC): 1.75 µM
- TGI (HOP-62 NSCLC): 3.39 µM
- GI50 (KM12 colon): 2.06 µM
- TGI (KM12 colon): 4.89 µM
- GI50 (ACHN renal): 1.59 µM
- TGI (ACHN renal): 2.94 µM
- GI50 (MDA-MB-231 breast): 1.89 µM
- TGI (MDA-MB-231 breast): 4.25 µM
- GI50 (SK-MEL-2 melanoma): 1.81 µM
- TGI (SK-MEL-2 melanoma): 3.64 µM
- GI50 (BT-549 breast): 1.85 µM
- TGI (BT-549 breast): 3.53 µM
- GI50 (HT29 colon): 1.78 µM
- TGI (HT29 colon): 3.45 µM
- GI50 (OVCAR-4 ovarian): 1.83 µM
- TGI (OVCAR-4 ovarian): 3.81 µM
- GI50 (EKVX NSCLC): 1.38 µM
- TGI (EKVX NSCLC): 2.92 µM
- GI50 (MDA-MB-468 breast): 1.75 µM
- TGI (MDA-MB-468 breast): 3.18 µM
- GI50 (RPMI-8226 leukemia): 2.18 µM
- TGI (RPMI-8226 leukemia): 5.46 µM
- GI50 (HCT-15 colon): 1.69 µM
- TGI (HCT-15 colon): 3.18 µM
- GI50 (NCI-H226 lung): 1.47 µM
- TGI (NCI-H226 lung): 2.97 µM
- GI50 (NCI/ADR-RES ovarian): 1.7 µM
- TGI (NCI/ADR-RES ovarian): 3.27 µM
- GI50 (IGROV1 ovarian): 1.71 µM
- TGI (IGROV1 ovarian): 3.29 µM
- GI50 (CAKI-1 renal): 1.54 µM
- TGI (CAKI-1 renal): 3.62 µM
- GI50 (SF-539 CNS): 1.63 µM
- TGI (SF-539 CNS): 3.02 µM
- GI50 (MDA-MB-435): 1.68 µM
- TGI (MDA-MB-435): 3.77 µM
- GI50 (K-562 leukemia): 3.15 µM
- TGI (K-562 leukemia): > 100 µM
- GI50 (OVCAR-3 ovarian): 1.91 µM
- TGI (OVCAR-3 ovarian): 3.45 µM
- GI50 (T-47D breast): 1.82 µM
- TGI (T-47D breast): 4.4 µM
- GI50 (SNB-75 CNS): 1.1 µM
- TGI (SNB-75 CNS): 3.06 µM
- GI50 (OVCAR-5 ovarian): 1.83 µM
- TGI (OVCAR-5 ovarian): 4.28 µM
- GI50 (RXF 393 renal): 0.773 µM
- TGI (RXF 393 renal): 2.22 µM
- GI50 (PC-3 prostate): 1.56 µM
- TGI (PC-3 prostate): 3.16 µM
- GI50 (786-0 renal): 1.73 µM
- TGI (786-0 renal): 3.16 µM
- GI50 (SF-268 CNS): 2.44 µM
- TGI (SF-268 CNS): 8.56 µM
- GI50 (HS 578T breast): 1.86 µM
- TGI (HS 578T breast): 5.62 µM
- GI50 (TK-10 renal): 3.12 µM
- TGI (TK-10 renal): 7.14 µM
- GI50 (SN12C renal): 1.78 µM
- TGI (SN12C renal): 4.16 µM
- GI50 (DU-145 prostate): 2.29 µM
- TGI (DU-145 prostate): 4.85 µM
- GI50 (MALME-3M melanoma): 1.63 µM
- TGI (MALME-3M melanoma): 3.1 µM
- GI50 (SF-295 CNS): 1.54 µM
- TGI (SF-295 CNS): 2.93 µM
- GI50 (NCI-H522 lung): 1.87 µM
- TGI (NCI-H522 lung): 4.1 µM
- GI50 (A498 renal): 2 µM
- TGI (A498 renal): 3.99 µM
- GI50 (OVCAR-8 ovarian): 1.89 µM
- TGI (OVCAR-8 ovarian): 3.8 µM
